One series concerns the target T1, human factor D (Homo sapiens, UniProt P00746).
T1 construct: Recombinant human factor D (26–253 aa) fused with both the N-terminal IgG signal peptide; IgG signal peptide (N); His tag (C); made in house; host or cells: Expi293 cells
In words: Human factor D enzyme assay. The format is biochemical. As to conditions: supplementary csv. The source says: Recombinant human factor D (26–253 aa) fused with both the N-terminal IgG signal peptide and the C-terminal His tag was expressed in Expi293 cells and purified. The human factor D assay condition was the same as for human MASP2, except that the enzyme solution concentration was 20 nmol/L and the substrate solution contained a 400 μmol/L Z-Lys-SBzl peptide and 50 μmol/L BES-Thio.

Series [1] addresses T2, Human Multidrug Resistance 1 (MDR-1) Expressing Cells (Homo sapiens, UniProt P08183).
T2 construct: expressed in transfected cells
In words: Membrane permeability with human MDR-1 expressing cells. To be noted: supplementary csv. The class given is in vitro ADME. The protocol:
(§1) The transcellular transport study was performed as reported previously.[31] In brief, the cells were grown in an HTS Transwell 96-well permeable support (pore size of 0.4 μm, 0.143 cm^2 surface area) with a polyethylene terephthalate membrane (Corning Life Sciences, Lowell, MA, USA) at a density of 1.125 × 10^5 cells/well. The cells were preincubated with M199 at 37 °C for 30 min. Subsequently, transcellular transport was initiated by the addition of M199 to apical compartments containing 1 μmol/L test compounds and terminated by the removal of each assay plate after 2 h. The aliquots in the opposite compartments were subjected to measurement for compound concentration by LC–MS/MS. Permeability was calculated using the permeated compound concentration.

A further series addresses T3, MDR1 (P-gp) (Homo sapiens, UniProt P08183).
T3 construct: expressed in transfected cells
The description is as above. The format is in vitro ADME. To be noted: human; MDR1-expressing cells, 1 μmol/L, 2 h. The protocol:
as §1

SMILES strings stand for the structures.

One compound from paper PMC10184130 can be followed below.

T1 sequence (P00746 26-253): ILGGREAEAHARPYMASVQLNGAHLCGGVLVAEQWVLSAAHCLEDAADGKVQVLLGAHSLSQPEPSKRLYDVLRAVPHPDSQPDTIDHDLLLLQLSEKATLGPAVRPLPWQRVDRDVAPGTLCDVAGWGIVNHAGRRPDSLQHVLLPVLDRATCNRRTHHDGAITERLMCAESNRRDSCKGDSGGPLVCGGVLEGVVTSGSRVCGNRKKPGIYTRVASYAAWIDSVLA

The compound `Cc1cc([C@H]2CN(c3cc(F)c4c(N)nncc4c3)CCN2c2cccc(F)c2)no1` [Compound (R)-8, 8-Fluoro-6-[(3R)-4-(3-fluorophenyl)-3-(5-methyl-1,2-oxazol-3-yl)piperazin-1-yl]phthalazin-1-amine] displayed a concentration for half-maximal inhibition (IC50) against human factor D of more than 30 µM. In addition, the “MDR1 (A to B)” value in series [1] amounted to 14 nm/s. At MDR1 (P-gp), this compound registered an apparent permeability from apical to basolateral (Papp A→B) at 2 h, 1 μmol/L of 1.4 ×10⁻⁶ cm/s.

Usually IC50 stands for the point on the concentration scale where inhibition reaches its midpoint. Read a high IC50 as lower potency. What is called Papp A→B is the apparent permeability from the apical to the basolateral side of a cell layer.
